Data: patent publication US20240246966A1, “NEW PYRAZOLO[1,5-a] PYRIMIDINE DERIVATIVES AS SIGMA LIGANDS” (ACONDICIONAMIENTO TARRASENSE, priority 2021, published 2024)

Legend:
Human σ1 Receptor = target: T1, Human σ1 Receptor (Homo sapiens, UniProt Q99720); assay: Human σ1 receptor radioligand assay ([3H](+)-pentazocine, transfected HEK-293 membranes); conditions: human σ1, [3H](+)-pentazocine 5 nM, binding expressed as Ki, read-out: Binding σ-1
T1 construct: expressed in transfected cells; host or cells: HEK-293
Protocol: Human σ1 Receptor Radioligand Assay
Transfected HEK-293 membranes (7 μg) were incubated with 5 nM of [^3H](+)-pentazocine in assay buffer containing Tris-HCl 50 mM at pH 8. NBS (non-specific binding) was measured by adding 10 μM haloperidol. The binding of the test compound was measured at either one concentration (% inhibition at 1 or 10 μM) or five different concentrations to determine affinity values (Ki). Plates were incubated at 37° C. for 120 minutes. After the incubation period, the reaction mix was then transferred to MultiScreen HTS, FC plates (Millipore), filtered and plates were washed 3 times with ice-cold 10 mM Tris-HCL (pH 7.4). Filters were dried and counted at approximately 40% efficiency in a MicroBeta scintillation counter (Perkin-Elmer) using EcoScint liquid scintillation cocktail.

Human σ2/TMEM97 receptor = target: T2, Human σ2/TMEM97 receptor (Homo sapiens, UniProt Q5BJF2); assay: Binding assay to human σ2/TMEM97 receptor ([3H]-DTG, transfected HEK-293 membranes); conditions: human σ2/TMEM97, [3H]-DTG 10 nM, binding expressed as Ki, read-out: Binding σ-2
T2 construct: expressed in transfected cells; host or cells: HEK-293
Protocol: Binding Assay to Human ρ2/TMEM97 Receptor
Transfected HEK-293 membranes (15 μg) were incubated with 10 nM [^3H]-1,3-Di-o-tolylguanidine ( DTG) in assay buffer containing Tris-HCl 50 mM at pH 8.0. NSB (non-specific binding) was measured by adding 10 μM haloperidol. The binding of the test compound was measured at either one concentration (% inhibition at 1 or 10 μM) or five different concentrations to determine affinity values (Ki). Plates were incubated at 25° C. for 120 minutes. After the incubation period, the reaction mix was transferred to MultiScreen HTS, FC plates (Millipore), filtered and washed 3 times with ice-cold 10 mM Tris-HCL (pH 8.0). Filters were dried and counted at approximately 40% efficiency in a MicroBeta scintillation counter (Perkin-Elmer) using EcoScint liquid scintillation cocktail.

sigma-2 (σ2) site = sigma-2 (σ2) site (Homo sapiens, UniProt Q5BJF2); conditions: background statement; cited from earlier work
[1] = system: mechanical hypersensitivity in SNI mice; conditions: spared nerve injury (SNI) mice model of neuropathic pain; cited from earlier work

T1 sequence (Q99720 whole entry): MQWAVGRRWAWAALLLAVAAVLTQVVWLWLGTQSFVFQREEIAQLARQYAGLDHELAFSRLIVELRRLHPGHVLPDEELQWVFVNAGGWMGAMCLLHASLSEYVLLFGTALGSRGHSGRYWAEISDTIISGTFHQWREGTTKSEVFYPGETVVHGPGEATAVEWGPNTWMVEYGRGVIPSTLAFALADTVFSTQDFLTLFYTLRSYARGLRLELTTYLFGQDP
T2 sequence (Q5BJF2 whole entry): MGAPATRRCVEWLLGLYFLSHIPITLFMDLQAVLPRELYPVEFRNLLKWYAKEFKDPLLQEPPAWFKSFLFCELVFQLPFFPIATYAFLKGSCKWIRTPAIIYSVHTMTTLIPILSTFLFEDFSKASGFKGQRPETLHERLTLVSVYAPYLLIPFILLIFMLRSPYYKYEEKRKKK
Sequence of sigma-2 (σ2) site (Q5BJF2 whole entry): as above

Molecule | Ki (Human σ1 Receptor) [nM] | Ki (Human σ2/TMEM97 receptor) [nM] | affinity for the sigma-2 (σ2) site (sigma-2 (σ2) site) | mechanical hypersensitivity [1]
FC(F)(F)c1cc(-c2cnn3cc(CN4CC5(CCOCC5)C4)cnc23)ccn1 [Example 33, 2-((3-(2-(Trifluoromethyl)pyridin-4-yl)pyrazolo[1,5-a]pyrimidin-6-yl)methyl)-7-oxa-2-azaspiro[3.5]nonane] | < 100 | > 1000 | – | –
COC1CCN(Cc2cnc3c(-c4ccnc(C(F)(F)F)c4)cnn3c2)CC1 [Example 34, 6-((4-Methoxypiperidin-1-yl)methyl)-3-(2-(trifluoromethyl)pyridin-4-yl)pyrazolo[1,5-a]pyrimidine] | < 100 | > 1000 | – | –
FC(F)(F)c1cc(-c2cnn3cc(CN4CCN(C5COC5)CC4)cnc23)ccn1 [Example 35, 6-((4-(Oxetan-3-yl)piperazin-1-yl)methyl)-3-(2-(trifluoromethyl)pyridin-4-yl)pyrazolo[1,5-a]pyrimidine] | 500 to 1000 | > 1000 | – | –
OC1CCN(Cc2cnc3c(-c4ccnc(C(F)(F)F)c4)cnn3c2)CC1 [Example 36, 1-((3-(2-(Trifluoromethyl)pyridin-4-yl)pyrazolo[1,5-a]pyrimidin-6-yl)methyl)piperidin-4-ol] | < 100 | > 1000 | – | –
Cc1nc2c(-c3ccnc(C(F)(F)F)c3)cnn2c(C)c1CN1CCC2(CC1)COC2 [Example 37, 7-((5,7-Dimethyl-3-(2-(trifluoromethyl)pyridin-4-yl)pyrazolo[1,5-a]pyrimidin-6-yl)methyl)-2-oxa-7-azaspiro[3.5]nonane] | < 100 | 500 to 1000 | – | –
FC(F)(F)c1cc(-n2ccc3cc(CN4CCC5(CC4)COC5)cnc32)ccn1 [Example 38, 7-((1-(2-(Trifluoromethyl)pyridin-4-yl)-1H-pyrrolo[2,3-b]pyridin-5-yl)methyl)-2-oxa-7-azaspiro[3.5]nonane] | < 100 | 100 to 500 | – | –
COCC1CCN(Cc2cnc3c(ccn3-c3ccnc(C(F)(F)F)c3)c2)CC1 [Example 39, 5-((4-(Methoxymethyl)piperidin-1-yl)methyl)-1-(2-(trifluoromethyl)pyridin-4-yl)-1H-pyrrolo[2,3-b]pyridine] | < 100 | 100 to 500 | – | –
CCOCC1CCN(Cc2cnc3c(ccn3-c3ccnc(C(F)(F)F)c3)c2)CC1 [Example 40, 5-((4-(Ethoxymethyl)piperidin-1-yl)methyl)-1-(2-(trifluoromethyl)pyridin-4-yl)-1H-pyrrolo[2,3-b]pyridine] | < 100 | 100 to 500 | – | –
COCC1CCN(Cc2cnc3c(ccn3-c3ccc(C(F)(F)F)nc3)c2)CC1 [Example 41, 5-((4-(Methoxymethyl)piperidin-1-yl)methyl)-1-(6-(trifluoromethyl)pyridin-3-yl)-1H-pyrrolo[2,3-b]pyridine] | < 100 | 100 to 500 | – | –
FC(F)(F)c1ccc(-n2ccc3cc(CN4CCC5(CC4)COC5)cnc32)cn1 [Example 42, 7-((1-(6-(Trifluoromethyl)pyridin-3-yl)-1H-pyrrolo[2,3-b]pyridin-5-yl)methyl)-2-oxa-7-azaspiro[3.5]nonane] | < 100 | 100 to 500 | – | –
FC(F)(F)c1cc(-n2ccc3cc(CN4CCC5(CCOC5)CC4)cnc32)ccn1 [Example 43, 8-((1-(2-(Trifluoromethyl)pyridin-4-yl)-1H-pyrrolo[2,3-b]pyridin-5-yl)methyl)-2-oxa-8-azaspiro[4.5]decane] | < 100 | 100 to 500 | – | –
COCC1CCN(Cc2cnc3c(ccn3-c3cccnc3C(F)(F)F)c2)CC1 [Example 44, 5-((4-(Methoxymethyl)piperidin-1-yl)methyl)-1-(2-(trifluoromethyl)pyridin-3-yl)-1H-pyrrolo[2,3-b]pyridine] | < 100 | 100 to 500 | – | –
FC(F)(F)c1ncccc1-n1ccc2cc(CN3CCC4(CCOCC4)CC3)cnc21 [Example 45, 9-((1-(2-(Trifluoromethyl)pyridin-3-yl)-1H-pyrrolo[2,3-b]pyridin-5-yl)methyl)-3-oxa-9-azaspiro[5.5]undecane] | < 100 | 100 to 500 | – | –
FC(F)(F)c1cc(-n2ccc3cc(CN4CCC5(CCOCC5)CC4)cnc32)ccn1 [Example 46, 9-((1-(2-(Trifluoromethyl)pyridin-4-yl)-1H-pyrrolo[2,3-b]pyridin-5-yl)methyl)-3-oxa-9-azaspiro[5.5]undecane] | < 100 | < 100 | – | –
FC(F)(F)c1cc(-n2ccc3cc(CN4CC5(CCOCC5)C4)cnc32)ccn1 [Example 47, 2-((1-(2-(Trifluoromethyl)53yridine-4-yl)-1H-pyrrolo[2,3-b]53yridine-5-yl)methyl)-7-oxa-2-azaspiro[3.5]nonane] | < 100 | < 100 | – | –
FC(F)(F)c1ccc(-n2ccc3cc(CN4CCC5(CCOCC5)CC4)cnc32)cn1 [Example 48, 9-((1-(6-(Trifluoromethyl)pyridin-3-yl)-1H-pyrrolo[2,3-b]pyridin-5-yl)methyl)-3-oxa-9-azaspiro[5.5]undecane] | < 100 | 100 to 500 | – | –
COC1CCN(Cc2cnc3c(ccn3-c3ccnc(C(F)(F)F)c3)c2)CC1 [Example 49, 5-((4-Methoxypiperidin-1-yl)methyl)-1-(2-(trifluoromethyl)pyridin-4-yl)-1H-pyrrolo[2,3-b]pyridine] | < 100 | 500 to 1000 | – | –
FC(F)(F)c1cc(-n2ccc3cc(CN4CCCOCC4)cnc32)ccn1 [Example 50, 4-((1-(2-(Trifluoromethyl)pyridin-4-yl)-1H-pyrrolo[2,3-b]pyridin-5-yl)methyl)-1,4-oxazepane] | < 100 | > 1000 | – | –
COC1CCN(Cc2cnc3c(ccn3-c3ccc(C(F)(F)F)nc3)c2)CC1 [Example 51, 5-((4-Methoxypiperidin-1-yl)methyl)-1-(6-(trifluoromethyl)pyridin-3-yl)-1H-pyrrolo[2,3-b]pyridine] | < 100 | 500 to 1000 | – | –
FC(F)(F)c1ccc(-n2ccc3cc(CN4CCCOCC4)cnc32)cn1 [Example 52, 4-((1-(6-(Trifluoromethyl)pyridin-3-yl)-1H-pyrrolo[2,3-b]pyridin-5-yl)methyl)-1,4-oxazepane] | < 100 | 500 to 1000 | – | –
N#Cc1ncccc1-n1ccc2cc(CN3CCC4(CCOCC4)CC3)cnc21 [Example 53, 3-(5-((3-Oxa-9-azaspiro[5.5]undecan-9-yl)methyl)-1H-pyrrolo[2,3-b]pyridin-1-yl) picolinonitrile] | < 100 | 500 to 1000 | – | –
FC(F)(F)c1ncccc1-n1ccc2cc(CN3CCC4(CCOC4)CC3)cnc21 [Example 54, 8-((1-(2-(Trifluoromethyl)pyridin-3-yl)-1H-pyrrolo[2,3-b]pyridin-5-yl)methyl)-2-oxa-8-azaspiro[4.5]decane] | < 100 | 500 to 1000 | – | –
FC(F)(F)c1ccc(-n2ccc3cc(CN4CC5(CCOCC5)C4)cnc32)cn1 [Example 55, 2-((1-(6-(Trifluoromethyl)pyridin-3-yl)-1H-pyrrolo[2,3-b]pyridin-5-yl)methyl)-7-oxa-2-azaspiro[3.5]nonane] | < 100 | 100 to 500 | – | –
FC(F)(F)c1ncccc1-n1ccc2cc(CN3CC4(CCOCC4)C3)cnc21 [Example 56, 2-((1-(2-(Trifluoromethyl)pyridin-3-yl)-1H-pyrrolo[2,3-b]pyridin-5-yl)methyl)-7-oxa-2-azaspiro[3.5]nonane] | < 100 | > 1000 | – | –
FC(F)(F)c1cc(-c2cnn3cc(CN4CCC5(CC4)COC5)ccc23)ccn1 [Example 57, 7-((3-(2-(Trifluoromethyl)pyridin-4-yl)pyrazolo[1,5-a]pyridin-6-yl)methyl)-2-oxa-7-azaspiro[3.5]nonane] | < 100 | 100 to 500 | – | –
FC(F)(F)c1cc(-n2ncc3cc(CN4CCC5(CC4)COC5)cnc32)ccn1 [Example 58, 7-((1-(2-(Trifluoromethyl)pyridin-4-yl)-1H-pyrazolo[3,4-b]pyridin-5-yl)methyl)-2-oxa-7-azaspiro[3.5]nonane] | < 100 | 100 to 500 | – | –
OCC1(CO)CCN(Cc2cnc3c(-c4ccnc(C(F)(F)F)c4)cnn3c2)CC1 [Example 59, (1-((3-(2-(Trifluoromethyl)pyridin-4-yl)pyrazolo[1,5-a]pyrimidin-6-yl)methyl)piperidine-4,4-diyl)dimethanol] | < 100 | > 1000 | – | –
OCC1(CCl)CCN(Cc2cnc3c(-c4ccnc(C(F)(F)F)c4)cnn3c2)CC1 [Example 60, (4-(Chloromethyl)-1-((3-(2-(trifluoromethyl)pyridin-4-yl)pyrazolo[1,5-a]pyrimidin-6-yl)methyl)piperidin-4-yl)methanol] | < 100 | 100 to 500 | – | –
(+)-SKF-10047 | – | – | micromolar affinity | –
UKH-1114 | – | – | – | relieved mechanical hypersensitivity
